Earlier results, collected in patent US20080213381A1, “Oral Drug Delivery System” (PHARMACEUTICAL INDUSTRIES LIMITED, priority 2005, published 2008).

[1] = oral, conventional immediate release dosage form of venlafaxine hydrochloride

## COc1ccc(C(CN(C)C)C2(O)CCCCC2)cc1 (stereo not drawn) [venlafaxine]
Conventional immediate release dosage form
  time after oral administration at which plasma venlafaxine level is sub-therapeutic: around 12 hours
[1]
  time at which peak plasma concentration of the active metabolite is achieved: 4 h
  time at which peak plasma concentration of venlafaxine is achieved: 2 h
